According to patent US7547687B2, “Therapeutic treatment methods” (priority 2002, dated 2009):

Assays:
[1] = test system: lethally-irradiated female B6D2F1 mice; assay: Survival of lethally-irradiated mice (10 Gy total body irradiation); assay type: in vivo; conditions: groups of 12 animals
Procedure: Treatment of ionizing radiation exposure. The effect of selected F1Cs on survival of lethally-irradiated female B6D2F1 mice were compared to control animals treated with vehicle alone. The animals were exposed to 10 Gy of total body irradiation at 2.5 Gy/min using a ^137Cs source. […] For Group 4, test article was administered as a 50 μL volume, by intramuscular injection for three consecutive days. The formulation was a suspension containing 0.1% w/v carboxymethyl-cellulose, 0.9% w/v sodium chloride and 0.05% v/v phenol. The formulations were agitated to uniformly resuspend the F1C before syringing, and injected into animals within a few minutes of drawing into the syringe to prevent settling in the syringe.
The groups of animals were treated as follows.
The number of surviving animals is shown for day 6, 7, 12 and 21.

female BALB/cByJ mice = assay: Delayed type hypersensitivity (DTH) response to topical oxazolone challenge, differential ear thickness; assay type: in vivo; conditions: 24 hours after oxazolone challenge; vehicle alone 0.225 mm
Procedure: Modulation of delayed type hypersensitivity. The capacity of F1Cs to modulate delayed type hypersensitivity (DTH) is determined in mice. Groups of five female BALB/cByJ mice (20-25 grams) are anesthetized and 100 μL of a 3% solution of oxazolone is applied on day 0 to the shaved abdomen and dried. Seven days later, on day 7, the mice are challenged by applying 5 μL of oxazolone topically to each side of the right ear. The F1C (at about 20-100 mg/mL) in vehicle is administered by subcutaneous injection (2 mg/day) one time on day 6, 24 hours before the oxazolone challenge. The vehicle as a non-aqueous suspension of the F1C in, e.g., 2% benzyl alcohol w/v, 0.1% Brij 96 w/v and equal volumes of PEG 300 and propylene glycol.
Dexamethasone in saline (0.2 mg/mL) is administered daily for 9 days (day −1 to 7), first dose 24 hours before sensitization, last dose at challenge by subcutaneous injection (0.01 mg/dose, 50 μL/injection). On Day 8, 24 hours following the oxazolone challenge, both the right and left ear thicknesses are measured using a micrometer caliper and the differences are determined. The differential ear thickness is measured as an indicator of the DTH response to topical oxazolone challenge. The DTH response is expressed as the difference in the thickness (mm) between the right and the left ears for each animal.

[2] = test system: U937 human promonocytic leukemia cells; assay: Microarray analysis of transcript levels in PMA-treated U937 cells exposed to BrEA; assay type: cell-based; conditions: for Ratio of BrEA treated cells compared to control cells (transcript level): 10 μM BrEA, PMA-treated U937 cells
Text: Modulation of transcription. The effect of 16α-bromoepiandrosterone (“BrEA”) on transcript levels in cells in vitro was studied using a microarray to allow simultaneous monitoring of the expression of many genes to allow detailed analysis of the molecular pathways involved in biological responses to the compound.
In general, microarray technology works by covalently linking short DNA sequences that are complementary to the transcripts of many different genes on a single slide or array chip. mRNAs from test and control samples are generated and labeled with one or more colored fluorescent dyes or probes. The probes are hybridized with the array, which is then scanned by laser. The color and intensity of the fluorescent signal at each spot denotes relative expression level of each gene. The capacity of other F1Cs described herein, e.g., a F1C in compound group 1, 2, 3, 4 or 5, to modulate gene expression is characterized in a similar manner.
The array used in the experiment described below, contained about 12,000 known genes. The experiment used U937 human promonocytic leukemia cells that differentiate to monocyte/macrophage cells in the presence of phorbol-12-myristate-13-acetate (“PMA”). The U937 cells were PMA treated and then exposed to BrEA for 1 hr, 2 hrs, or 4 hrs, followed by bacterial lipopolysaccharide (“LPS”) stimulation for 1 hr, 2 hrs or 4 hrs. The level of transcripts of the genes on the array was measured at the time points using RNA prepared from BrEA-treated and control (no BrEA) cells. U937 cells were plated at 1×10^5 cells/mL in the presence of 3 ng/mL PMA (Sigma, Catalog #P-8139) for 48 hrs. Cells were then treated with either 10 μM BrEA or DMSO (vehicle) for 1 hr, 2 hr, and 4 hrs. At each time point, cells were harvested and total RNA was extracted using Qiagen Rneasy kit according to manufacturer's specification. Total RNA samples were then analyzed by Mergen Ltd. (San Leandro, Calif. www.mergen.com) to perform microarray assay.
For the microarray assay, Dnase-treated total RNA (20 micrograms) was reverse-transcribed using an oligo[(dT)24 T7 promoter]65 primer (consisting of the nucleotide binding sequence for the T7 RNA polymerase followed by 24 thymidine nucleotides). This was followed by second strand synthesis. The reaction mixture was then treated with Rnase I to digest the remaining RNA. The double-stranded cDNA was phenol-chloroform extracted and used as template for in vitro transcription (T7 MEGAscript, Ambion, Inc.) to generate biotin-labeled cRNA probes. These probes were hybridized overnight at 30° C. with continuous agitation to Mergen's ExpressChip HO5 DNA Microarray System (catalog number HO5-001) containing 12,000 genes. The arrays were then washed, and hybridized probes were detected using Mergen's cyanine-3 fluorescent dye-conjugated protein. Chips were imaged using an Affymetrix 417-418 form Affymetrix/Genetic MicroSystems (www.affymetrix.com) and spot intensity was quantitated using ImaGenefrom BioDiscovery Inc. .______
The up-regulation of many of these genes most apparent at 4 hr after treatment, at which time roughly 700 genes were within the above criteria. Some examples are shown in the following list. The ratios given in the list are from BrEA treated cells compared to control cells not treated with BrEA.

[3] = 0.6 mg i.m. daily for 3 consecutive days after 10 Gy
[4] = 0.6 mg s.c. daily for 3 consecutive days, first dose 2 to 4 hours after 10 Gy
[5] = 3.0 mg s.c. daily for 3 consecutive days after 10 Gy

C[C@]12CC[C@H]3[C@@H](CC=C4C[C@@H](O)CC[C@@]43C)[C@@H]1CC[C@@H]2O [3β,17β-dihydroxyandrost-5-ene]
number of surviving animals, day 6 [1, 3]: 12 | number of surviving animals, day 7 [1, 3]: 12 | number of surviving animals, day 12 [1, 3]: 11 | number of surviving animals, day 21 [1, 3]: 9 | number of surviving animals, day 6 [1, 4]: 12 | number of surviving animals, day 7 [1, 4]: 11 | number of surviving animals, day 12 [1, 4]: 10 | number of surviving animals, day 21 [1, 4]: 7 | number of surviving animals, day 6 [1, 5]: 12 | number of surviving animals, day 7 [1, 5]: 12 | number of surviving animals, day 12 [1, 5]: 9 | number of surviving animals, day 21 [1, 5]: 7

C[C@@H]1C[C@H]2[C@@H]3CCC4=CC(=O)C=C[C@]4(C)[C@@]3(F)[C@@H](O)C[C@]2(C)[C@@]1(O)C(=O)CO [dexamethasone]
DTH response (differential ear thickness, right minus left ear) (female BALB/cByJ mice): 0.144 mm

O=P1(N(CCCl)CCCl)NCCCO1 (stereo not drawn) [cyclophosphamide]
DTH response (differential ear thickness, right minus left ear) (female BALB/cByJ mice): 0.092 mm

C[C@]12CC[C@H]3[C@@H](CC=C4C[C@@H](O)CC[C@@]43C)[C@@H]1CC[C@@H]2N [3β-hydroxy-17β-aminoandrost-5-ene]
number of surviving animals, day 6 [1, 4]: 12 | number of surviving animals, day 7 [1, 4]: 12 | number of surviving animals, day 12 [1, 4]: 12 | number of surviving animals, day 21 [1, 4]: 11

C[C@]12CC[C@H](O)C[C@@H]1CC[C@@H]1[C@@H]2CC[C@]2(C)C(=O)[C@H](Br)C[C@@H]12 [BrEA, 16α-bromoepiandrosterone]
number of genes up-regulated (at least two-fold higher than control and significantly higher than background) ([2]; 4 hr after treatment, array of about 12,000 genes): roughly 700 genes | transcripts of Cul1 ([2]; at 1 hr): increased | transcripts of EGR1 ([2]; at 1 hr): increased | transcripts of USF1 ([2]; at 1 hr): increased | transcripts of c-Fos ([2]; at 1 hr): increased | Jun B transcript ([2]; at 4 hrs): increased | Ratio of BrEA treated cells compared to control cells (transcript level) ([2]; gene ATF3 (Hs.460)): 5.3 | Ratio of BrEA treated cells compared to control cells (transcript level) ([2]; gene ATP2B1 (Hs.78546)): 5.4 | Ratio of BrEA treated cells compared to control cells (transcript level) ([2]; gene DUSP5 (Hs.2128)): 10.2 | Ratio of BrEA treated cells compared to control cells (transcript level) ([2]; gene EHD1 (Hs.155119)): 9.7 | Ratio of BrEA treated cells compared to control cells (transcript level) ([2]; gene GG2-1 (Hs.17839)): 10.3 | Ratio of BrEA treated cells compared to control cells (transcript level) ([2]; gene GRO2 (Hs.75765)): 9.6 | Ratio of BrEA treated cells compared to control cells (transcript level) ([2]; gene GRO3 (Hs.89690)): 124.7 | Ratio of BrEA treated cells compared to control cells (transcript level) ([2]; gene HIVEP2 (Hs.75063)): 6.6 | Ratio of BrEA treated cells compared to control cells (transcript level) ([2]; gene HSPA1B (Hs.274402)): 7.8 | Ratio of BrEA treated cells compared to control cells (transcript level) ([2]; gene IL1B (Hs.126256)): 27.5 | Ratio of BrEA treated cells compared to control cells (transcript level) ([2]; gene IL1RN (Hs.81134)): 53.0 | Ratio of BrEA treated cells compared to control cells (transcript level) ([2]; gene IL15RA (Hs.12503)): 7.6 | Ratio of BrEA treated cells compared to control cells (transcript level) ([2]; gene IL23A (Hs.98309)): 131.8 | Ratio of BrEA treated cells compared to control cells (transcript level) ([2]; gene INHBA (Hs.727)): 21.5 | Ratio of BrEA treated cells compared to control cells (transcript level) ([2]; gene KIAA1376 (Hs.24684)): 7.7 | Ratio of BrEA treated cells compared to control cells (transcript level) ([2]; gene KIAA1726 (Hs.164719)): 6.9 | Ratio of BrEA treated cells compared to control cells (transcript level) ([2]; gene LOC51285 (Hs.27018)): 5.9 | Ratio of BrEA treated cells compared to control cells (transcript level) ([2]; gene MACS (Hs.75607)): 30.0 | Ratio of BrEA treated cells compared to control cells (transcript level) ([2]; gene MAIL (Hs.301183)): 25.5 | Ratio of BrEA treated cells compared to control cells (transcript level) ([2]; gene MAP3K5 (Hs.151988)): 7.1 | Ratio of BrEA treated cells compared to control cells (transcript level) ([2]; gene MGC5618 (Hs.177781)): 32.0 | Ratio of BrEA treated cells compared to control cells (transcript level) ([2]; gene NAF1 (Hs.109281)): 6.4 | Ratio of BrEA treated cells compared to control cells (transcript level) ([2]; gene NFKBIA (Hs.81328)): 11.3 | Ratio of BrEA treated cells compared to control cells (transcript level) ([2]; gene OLR1 (Hs.77729)): 26.1 | Ratio of BrEA treated cells compared to control cells (transcript level) ([2]; gene PBEF (Hs.239138)): 9.2 | Ratio of BrEA treated cells compared to control cells (transcript level) ([2]; gene PIM2 (Hs.80205)): 14.5 | Ratio of BrEA treated cells compared to control cells (transcript level) ([2]; gene PKIG (Hs.3407)): 5.4 | Ratio of BrEA treated cells compared to control cells (transcript level) ([2]; gene PTX3 (Hs.2050)): 1348.4 | Ratio of BrEA treated cells compared to control cells (transcript level) ([2]; gene REV3L (Hs.115521)): 5.3 | Ratio of BrEA treated cells compared to control cells (transcript level) ([2]; gene RGS16 (Hs.183601)): 29.2 | Ratio of BrEA treated cells compared to control cells (transcript level) ([2]; gene RIPK2 (Hs.103755)): 6.6 | Ratio of BrEA treated cells compared to control cells (transcript level) ([2]; gene SCYA1 (Hs.72918)): 40.4 | Ratio of BrEA treated cells compared to control cells (transcript level) ([2]; gene SCYA4 (Hs.75703)): 67.3 | Ratio of BrEA treated cells compared to control cells (transcript level) ([2]; gene SCYA8 (Hs.271387)): 7.0 | Ratio of BrEA treated cells compared to control cells (transcript level) ([2]; gene SCYA20 (Hs.75498)): 174.0 | Ratio of BrEA treated cells compared to control cells (transcript level) ([2]; gene SERPINE1 (Hs.82085)): 8.4 | Ratio of BrEA treated cells compared to control cells (transcript level) ([2]; gene SOD2 (Hs.318885)): 39.7 | Ratio of BrEA treated cells compared to control cells (transcript level) ([2]; gene SSI-1 (Hs.50640)): 16.9 | Ratio of BrEA treated cells compared to control cells (transcript level) ([2]; gene STAT5A (Hs.167503)): 5.9 | Ratio of BrEA treated cells compared to control cells (transcript level) ([2]; gene STK2 (Hs.1087)): 9.0 | Ratio of BrEA treated cells compared to control cells (transcript level) ([2]; gene TNFAIP2 (Hs.101382)): 17.4 | Ratio of BrEA treated cells compared to control cells (transcript level) ([2]; gene TNFAIP3 (Hs.211600)): 5.1 | Ratio of BrEA treated cells compared to control cells (transcript level) ([2]; gene TNFAIP6 (Hs.29352)): 1733.0 | Ratio of BrEA treated cells compared to control cells (transcript level) ([2]; gene TRAF1 (Hs.2134)): 15.0 | Ratio of BrEA treated cells compared to control cells (transcript level) ([2]; gene TRG@ (Hs.112259)): 17.4
